The text below walks through data of paper PMC6030159 (Scientific Reports, 2018).

In one experiment the test system is T1, MYC:MAX.
T1 construct: fused to full length MYC (MYC-GLuc-C) and MAX (MAX-GLuc-N), respectively; expressed in transfected cells; host or cells: HEK293
The experiment is described as follows: Gaussia luciferase complementation (GLuc) MYC:MAX. Type of experiment: cell-based, human. The conditions noted are these: 25 μM, 17 hours, HEK293 cells. Here is the method:
The protein fragment complementation assay using the Gaussia luciferase has been described. 0.2–0.4 μg of each GLuc-construct (see Supplementary Information) together with 0.05–0.2 μg pCMV-Luc (Firefly luciferase) were transiently transfected into HEK293 or COS-7 cells in 6-well plates. 24 hours later cells were treated with compound (10–25 μM) or DMSO. After another 17 hours, the cells were harvested and lyzed in passive lysis buffer (Promega) supplemented with complete protease inhibitor (Roche). After 60 min incubation at room temperature 20 μM D-luciferin was added (substrate of Firefly luciferase) and luminescence was measured in a Lumat LB9501 (Berthold) or OmegaFluostar (BMG Labtech) luminometer. Directly after, Gaussia luciferase substrate Coelenterazine (Promega) was added to a final concentration of 20 μM in a mixture with “Stop n’ Glow” (Promega) and the luciferase activity was measured. The ratio between Gaussia and Firefly luciferase values were calculated and normalized to DMSO-treated control cells.

Another experiment concerns T2, BCL-XL.
T2 construct: purchased Abcam
On the set-up: method as in PMID 23824742. Conditions: in vitro fluorescence polarization, BCL-XL:BAK; cited from earlier work. In general terms: In fluorescence polarisation assays a small probe gives low polarisation when free and higher when bound to something large.

Experiment [1] deals with MYCN-non-amplified neuroblastoma cells (SK-N-F1, SK-N-AS, SK-N-RA). The experiment is described as follows: Resazurin growth assay, MYCN-non-amplified neuroblastoma cell lines. Type of experiment: cell-based. An excerpt:
HEK293A, MCF7, MDA-MB231, SK-N-F1, SK-N-RA, SK-N-AS, COS-7, HeLa, BJ cells, and Rat1 fibroblasts TGR-1 (wt), HO15.19 (MYC knockout) and HOmyc3 (MYC reconstituted HO15.19) were maintained in DMEM. The neuroblastoma cell lines Kelly, IMR-32 and SK-N-DZ, and the Burkitt’s lymphoma cell lines Mutu, Daudi and ST486 were kept in RPMI. SK-N-BE(2) cells were maintained in a 1:1 mixture of EMEM and F12 media, supplemented with 1% non-essential amino acid solution (NEAA) and 0.5% Glutamine. U2OS-MYC-ER cell lines were cultured in phenol-red free DMEM and treated with 100 nM 4-hydroxytamoxifen (HOT) (Sigma-Aldrich) to activate MYC-ER. IMR-90 was maintained in MEM. […]
Cell proliferation assays. Cell growth and viability was estimated in triplicates with WST-1 (Roche) or Resazurin sodium salt (Sigma-Aldrich) assays in medium at 37°C and 5% CO 2 for 2 hours after which absorbance or fluorescence, respectively, was measured with an Omega Fluostar (BMG Labtech) in a 96 well plate format. […] Images were taken in the green (FITC) and blue (DAPI) channels using a fluorescence microscope (ImageXpress Micro, Molecular Devices). […] After 16 days, the colonies were stained with 100 µg/ml MTT (Sigma) overnight and colonies were counted.
Immunohistochemistry. […] For quantification, areas with positive TUNEL and Ki67 staining were measured using Image J software. […]

As usually defined, the GI50 is the concentration at which growth is held to half of that of the control.

Consider `CCOc1ccc2nc3cc(/N=N/c4ccc(N)nc4N)ccc3c(N)c2c1` [MYCMI-6], for which the “MYC:MAX GLuc activity” value in the experiment on MYC:MAX is “most potent”. Further, the “concentration of binding to BCL-XL” value in the experiment with BCL-XL is reported as 14 nM. The GI50 in experiment [1] (Homo sapiens, SK-N-AS, 48 hours, resazurin) was at least 20 µM. Also, the “response of SK-N-F1 cell line” value in experiment [1] (SK-N-F1, 48 hours) is on record as “essentially did not respond at all”.
